How the values were obtained:
[1] = tested on: control sera (pooled serum of ten healthy LUMC hospital workers; commercial negative donor pooled serum from the Dutch bloodbank); assay type: binding, human; design: Binding of Control serum LUMC to linear peptides / Binding of Control serum Blood-bank to linear peptides / Binding of Control serum LUMC to looped peptides / Binding of Control Serum Blood-Bank to Looped peptides / Binding of Control serum LUMC to linear peptides of the protein M of SARS-CoV Urbani / Binding of Control serum Blood-bank to linear peptides of the protein M of SARS-CoV Urbani / Binding of Control serum LUMC to looped peptides of the protein M of SARS-CoV Urbani / Binding of Control Serum Blood-Bank to Looped peptides of the protein M of SARS-CoV Urbani: unit not given here
[2] = tested on: rabbit serum obtained by immunizing a rabbit with the SARS-CoV strain Frankfurt 1; assay type: binding; design: Binding of a rabbit serum to linear peptides / Binding of a rabbit serum to looped peptides / Rabbit serum linear peptides / Rabbit serum looped peptides / Binding of a rabbit serum to linear peptides of protein N of SARS-CoV Urbani (Rabbit serum linear peptides) / Binding of a rabbit serum to looped/cyclic peptides of protein N of SARS-CoV Urbani (Rabbit serum looped peptides): unit not given here
[3] = tested on: antibodies in sera from SARS patients (sera 1a, 1b, 2, 6, 37, 62, London, SARS-yellow, SARS-green); assay type: binding, human; design: Binding of serum 6 to linear peptides of protein X1 of SARS-CoV Urbani / Binding of serum 37 to linear peptides of protein X1 of SARS-CoV Urbani / Binding of serum 6 to looped/cyclic peptide (PEPSCAN-ELISA) / Binding of serum 37 to looped/cyclic peptide (PEPSCAN-ELISA) / Binding of serum 37 to looped/cyclic peptides of protein X1 of SARS-CoV Urbani / Binding of serum 6 to linear peptides of protein X2 / Binding of serum 37 to linear peptides of protein X2 / Binding of serum 37 to looped/cyclic peptides of protein X2 of SARS-CoV Urbani / Binding of serum 6 to linear peptides of protein M of SARS-CoV Urbani / Binding of serum 37 to linear peptides of protein M of SARS-CoV Urbani / Binding of serum 6 to looped/cyclic peptides of protein M of SARS-CoV Urbani / Binding of serum 37 to looped/cyclic peptides of protein M of SARS-CoV Urbani / Binding of serum 6 to linear peptides of protein X3 of SARS-CoV Urbani / Binding of serum 37 to linear peptides of protein X3 of SARS-CoV Urbani / Binding of serum 37 to looped/cyclic peptides of protein X3 of SARS-CoV Urbani / Binding of serum 6 to linear peptides of protein X4 of SARS-CoV Urbani / Binding of serum 37 to linear peptides of protein X4 of SARS-CoV Urbani / Binding of serum 37 to looped/cyclic peptides of protein X4 of SARS-CoV Urbani / Binding of serum 6 to linear peptides of protein X5 of SARS-CoV Urbani / Binding of serum 37 to linear peptides of protein X5 of SARS-CoV Urbani / Binding of serum 37 to looped/cyclic peptides of protein X5 of SARS-CoV Urbani / Binding of serum 6 to linear peptides of protein N of SARS-CoV Urbani / Binding of serum 37 to linear peptides of protein N of SARS-CoV Urbani / Binding of serum 6 to linear peptide (PEPSCAN-ELISA) / Binding of serum 1a to looped/cyclic peptides of protein N of SARS-CoV Urbani / Binding of serum 1b to looped/cyclic peptides of protein N of SARS-CoV Urbani / Binding of serum 2 to looped/cyclic peptides of protein N of SARS-CoV Urbani / Binding of serum 6 to looped/cyclic peptides of protein N of SARS-CoV Urbani / Binding of serum 37 to looped/cyclic peptides of protein N of SARS-CoV Urbani / Binding of serum 62 to looped/cyclic peptides of protein N of SARS-CoV Urbani / Binding of serum London to looped/cyclic peptides of protein N of SARS-CoV Urbani / Binding of serum SARS-green to looped/cyclic peptides of protein N of SARS-CoV Urbani: unit not given here
[4] = tested on: recombinant human anti-SARS-CoV antibody 03-018; assay type: binding; design: Binding of antibody 03-018 to linear peptides of the N protein of SARS-CoV Urbani / Binding of antibody 03-018 to looped/cyclic peptides of the N protein of SARS-CoV Urbani: unit not given here

Sequence | Binding of Control Serum Blood-Bank to Looped peptides [1] | Binding of Control serum Blood-bank to linear peptides [1] | Binding of Control serum LUMC to linear peptides [1] | Binding of Control serum LUMC to looped peptides [1] | Binding of a rabbit serum to linear peptides of protein N of SARS-CoV Urbani (Rabbit serum linear peptides) [2] | Binding of a rabbit serum to looped/cyclic peptides of protein N of SARS-CoV Urbani (Rabbit serum looped peptides) [2] | Binding of serum 1a to linear peptide (PEPSCAN-ELISA) [3] | Binding of serum 1a to looped/cyclic peptides of protein N of SARS-CoV Urbani [3] | Binding of serum 1b to linear peptide (PEPSCAN-ELISA) [3] | Binding of serum 1b to looped/cyclic peptides of protein N of SARS-CoV Urbani [3] | Binding of serum 2 to linear peptide (PEPSCAN-ELISA) [3] | Binding of serum 2 to looped/cyclic peptides of protein N of SARS-CoV Urbani [3] | Binding of serum 6 to linear peptide (PEPSCAN-ELISA) [3] | Binding of serum 6 to looped/cyclic peptides of protein N of SARS-CoV Urbani [3] | Binding of serum 37 to linear peptide (PEPSCAN-ELISA) [3] | Binding of serum 37 to looped/cyclic peptides of protein N of SARS-CoV Urbani [3] | Binding of serum 62 to linear peptide (PEPSCAN-ELISA) [3] | Binding of serum 62 to looped/cyclic peptides of protein N of SARS-CoV Urbani [3] | Binding of antibody 03-018 to linear peptides of the N protein of SARS-CoV Urbani [4] | Binding of antibody 03-018 to looped/cyclic peptides of the N protein of SARS-CoV Urbani [4] | also measured
QLESKVSGKGQQQQG | 1.0 | 0.8 | 0.8 | 0.9 | 0.1 | 0.4 | 0.3 | 0.5 | 0.1 | 0.4 | 0.3 | 0.7 | 0.2 | 0.5 | 0.7 | 0.6 | 0.8 | 0.7 | 0.1 | 0.3 | Binding of serum London to linear peptide (PEPSCAN-ELISA) [3]: 0.6; Binding of serum London to looped/cyclic peptides of protein N of SARS-CoV Urbani [3]: 0.7; Binding of serum SARS-green to linear peptide (PEPSCAN-ELISA) [3]: 0.5; Binding of serum SARS-green to looped/cyclic peptides of protein N of SARS-CoV Urbani [3]: 0.7; Binding of serum SARS-yellow to linear peptide (PEPSCAN-ELISA) [3]: 0.8; Binding of serum SARS-yellow to looped/cyclic peptides of protein N of SARS-CoV Urbani [3]: 1.1
QPLPQRQKKQPTVTL |  |  |  |  | 0.1 | 0.7 |  |  |  |  |  |  |  |  |  |  |  |  | 0.1 | 0.3 | Control Serum Blood-Bank Looped peptides [1]: 1.0; Control serum Blood-bank linear peptides [1]: 0.6; Control serum LUMC linear peptides [1]: 0.5; Control serum LUMC looped peptides [1]: 0.9; Binding of serum 1a to linear peptides of protein N of SARS-CoV Urbani [3]: 0.2; Binding of serum 1b to linear peptides of protein N of SARS-CoV Urbani [3]: 0.2; Binding of serum 2 to linear peptides of protein N of SARS-CoV Urbani [3]: 0.3; Binding of serum 6 to linear peptides of protein N of SARS-CoV Urbani [3]: 0.4; Binding of serum 37 to linear peptides of protein N of SARS-CoV Urbani [3]: 0.6; Binding of serum 62 to linear peptides of protein N of SARS-CoV Urbani [3]: 0.6; Binding of serum London to linear peptides of protein N of SARS-CoV Urbani [3]: 1.3; Binding of serum SARS-green to linear peptides of protein N of SARS-CoV Urbani [3]: 0.2; Binding of serum SARS-yellow to linear peptides of protein N of SARS-CoV Urbani [3]: 1.3; Recognition of the peptide by sera of SARS-CoV infected individuals, and form (linear, looped/cyclic) in which it is recognized [3]: recognized in looped/cyclic form
QQQGQTVTKKSAAEA | 0.6 | 0.6 | 0.5 | 0.6 | 0.0 | 0.0 | 0.6 | 0.5 | 0.2 | 0.3 | 0.5 | 0.7 | 0.2 | 0.5 | 0.5 | 0.6 | 0.5 | 0.7 | 0.1 | 0.2 | Binding of serum London to linear peptide (PEPSCAN-ELISA) [3]: 0.6; Binding of serum London to looped/cyclic peptides of protein N of SARS-CoV Urbani [3]: 0.6; Binding of serum SARS-green to linear peptide (PEPSCAN-ELISA) [3]: 0.3; Binding of serum SARS-green to looped/cyclic peptides of protein N of SARS-CoV Urbani [3]: 0.9; Binding of serum SARS-yellow to linear peptide (PEPSCAN-ELISA) [3]: 0.6; Binding of serum SARS-yellow to looped/cyclic peptides of protein N of SARS-CoV Urbani [3]: 0.6
QQQQGQTVTKKSAAE | 0.2 | 0.6 | 0.6 | 0.2 | 0.3 | 0.0 | 0.8 | 0.3 | 0.3 | 0.1 | 0.7 | 0.3 | 0.2 | 0.1 | 0.7 | 0.3 | 0.7 | 0.2 | 0.1 | 0.2 | Binding of serum London to linear peptide (PEPSCAN-ELISA) [3]: 0.7; Binding of serum London to looped/cyclic peptides of protein N of SARS-CoV Urbani [3]: 0.2; Binding of serum SARS-green to linear peptide (PEPSCAN-ELISA) [3]: 0.3; Binding of serum SARS-green to looped/cyclic peptides of protein N of SARS-CoV Urbani [3]: 0.0; Binding of serum SARS-yellow to linear peptide (PEPSCAN-ELISA) [3]: 0.9; Binding of serum SARS-yellow to looped/cyclic peptides of protein N of SARS-CoV Urbani [3]: 0.1
QRQKKQPTVTLLPAA |  |  |  |  | 0.2 | 0.7 |  |  |  |  |  |  |  |  |  |  |  |  | 0.1 | 0.3 | Control Serum Blood-Bank Looped peptides [1]: 1.1; Control serum Blood-bank linear peptides [1]: 0.8; Control serum LUMC linear peptides [1]: 0.7; Control serum LUMC looped peptides [1]: 0.8; Binding of serum 1a to linear peptides of protein N of SARS-CoV Urbani [3]: 0.3; Binding of serum 1b to linear peptides of protein N of SARS-CoV Urbani [3]: 0.1; Binding of serum 2 to linear peptides of protein N of SARS-CoV Urbani [3]: 0.3; Binding of serum 6 to linear peptides of protein N of SARS-CoV Urbani [3]: 0.2; Binding of serum 37 to linear peptides of protein N of SARS-CoV Urbani [3]: 0.7; Binding of serum 62 to linear peptides of protein N of SARS-CoV Urbani [3]: 0.8; Binding of serum London to linear peptides of protein N of SARS-CoV Urbani [3]: 0.6; Binding of serum SARS-green to linear peptides of protein N of SARS-CoV Urbani [3]: 0.7; Binding of serum SARS-yellow to linear peptides of protein N of SARS-CoV Urbani [3]: 0.6; Recognition of the peptide by sera of SARS-CoV infected individuals, and form (linear, looped/cyclic) in which it is recognized [3]: recognized in looped/cyclic form

From patent US20070128217A1 (priority 2003, published 2007)
